In US20240058422A1, “GLUCAGON-LIKE PEPTIDE-1 RECEPTOR ANTAGONISTS” (INDIANA UNIVERSITY RESEARCH AND TECHNOLOGY CORPORATION, priority 2022, published 2024):
In brackets after ≈: the same amount, converted by molar mass. Starred links: 1 amine or outer side, 2 acyl side, 3 side chain; linkers in the order of their positions; H or OH if unused. Non-standard residues stand in square brackets, D forms with d. Residues, ends and D or L forms follow the SMILES beside them. Groups on a side chain read outwards from the residue. *: point of attachment. C18 diacid = O=C(O)CCCCCCCCCCCCCCCCC(=O)*; γGlu = O=C(O)[C@H](CCC(=O)[*:2])N[*:1]; Palmitoyl = CCCCCCCCCCCCCCCC(=O)*; pGlu = O=C1CC[C@@H](C(=O)O)N1; AEEA = NCCOCCOCC(=O)O; Aib = CC(C)(N)C(=O)O

Columns and labels:
[1] = physchem
[2] = biological target: T1, GLP-1R (Homo sapiens, UniProt P43220); test: GLP-1 receptor-mediated cAMP induction, luciferase reporter gene antagonism assay; assay type: cell-based; design: host or cells: HEK 293; details: antagonism of 0.05 nM GLP-1, HEK 293 cells
Outline: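 HEK 293 cells cotransfected with human GLP-1 receptor and CRE-luciferase were serum-deprived 16 h, then given serial peptide dilutions followed by 0.05 nM GLP-1 and incubated 5 h at 37° C.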
Target sequence in this assay (P43220 24-463): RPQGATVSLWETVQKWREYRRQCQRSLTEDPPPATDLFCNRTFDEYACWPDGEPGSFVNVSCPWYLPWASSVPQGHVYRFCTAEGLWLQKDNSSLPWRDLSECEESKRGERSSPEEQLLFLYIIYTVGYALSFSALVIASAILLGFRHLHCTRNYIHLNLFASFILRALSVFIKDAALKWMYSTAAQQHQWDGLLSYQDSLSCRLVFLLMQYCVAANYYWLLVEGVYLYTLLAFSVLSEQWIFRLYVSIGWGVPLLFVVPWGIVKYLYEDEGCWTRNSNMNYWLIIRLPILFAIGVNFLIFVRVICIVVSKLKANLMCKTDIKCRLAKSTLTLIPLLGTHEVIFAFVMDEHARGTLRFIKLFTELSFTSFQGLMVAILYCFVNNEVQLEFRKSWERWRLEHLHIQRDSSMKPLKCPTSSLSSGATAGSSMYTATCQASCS

[3] = biological target: T1, GLP-1R; test: IC50 nM; design: host or cells: HEK 293; details: read-out: IC50
Protocol: Table printed on a drawing sheet, Fig. 10
Head of the field: IC50 nM
Where the first naming reader finds the target: description_of_the_figure: as measured in an in vitro assay using GLP-1R over-expressing 293 cells
Target sequence in this assay (P43220 24-463 limits assumed): as the sequence (P43220 24-463) above

[4] = Solubility in buffer
[5] = pH 7.7, Solubility 80 mM AmeBicarb pH7.7
[6] = Table 3, amino acid substitution variants of Jant4-K40, read-out: Bioactivity IC50
[7] = pH 7.7, Solubility [mg/mL] 80 mM AmBicarb pH7.7
[8] = pH 7.7, Solubility [mg/mL] PBS pH7.7
[9] = Table 4, Aib variants of 9-40am Jant4 K40[C16], read-out: Bioactivity IC50

Question: Which solubility [1, 5] does the source give for `CCCCCCCCCCCCCCCC(=O)NCCCC[C@H](NC(=O)[C@H](CO)NC(=O)[C@@H]1CCCN1C(=O)[C@@H]1CCCN1C(=O)[C@@H]1CCCN1C(=O)[C@H](C)NC(=O)CNC(=O)[C@H](CO)NC(=O)[C@H](CO)NC(=O)[C@@H]1CCCN1C(=O)CNC(=O)CNC(=O)[C@H](CCCNC(=N)N)NC(=O)[C@@H](NC(=O)[C@H](CC(C)C)NC(=O)[C@H](Cc1c[nH]c2ccccc12)NC(=O)[C@H](CCC(=O)O)NC(=O)[C@@H](NC(=O)[C@H](Cc1ccccc1)NC(=O)[C@H](CCC(=O)O)NC(=O)[C@H](CCCNC(=N)N)NC(=O)[C@@H](NC(=O)[C@H](C)NC(=O)[C@H](CCC(N)=O)NC(=O)[C@H](CCC(=O)O)NC(=O)[C@H](CCC(=O)O)NC(=O)[C@H](CC(C)C)NC(=O)[C@H](Cc1ccc(O)cc1)NC(=O)[C@H](CCCNC(=N)N)NC(=O)[C@H](CO)NC(=O)[C@@H](NC(=O)[C@@H](N)CC(=O)O)C(C)C)C(C)C)[C@@H](C)CC)C(C)C)C(N)=O` [compound 74] (H-DVSRYLEEQAVREFIEWLVRGGPSSGAPPPSK(Palmitoyl)-NH2; N-terminus assumed) here?
Answer: > 20000 µg/mL

Question: What about the IC50 [2, 6] of the same compound?
Answer: 15 nM

Question: With `CC[C@H](C)[C@H](NC(=O)[C@H](Cc1ccccc1)NC(=O)[C@H](CCC(=O)O)NC(=O)[C@H](CCCNC(=N)N)NC(=O)[C@@H](NC(=O)[C@H](C)NC(=O)[C@H](CCC(N)=O)NC(=O)[C@H](CCC(=O)O)NC(=O)[C@H](CCC(=O)O)NC(=O)[C@H](CC(C)C)NC(=O)[C@H](Cc1ccc(O)cc1)NC(=O)[C@H](CO)NC(=O)[C@H](CO)NC(=O)[C@@H](NC(=O)[C@H](CC(=O)O)NC(=O)[C@@H]1CCC(=O)N1)C(C)C)C(C)C)C(=O)N[C@@H](C)C(=O)N[C@@H](Cc1c[nH]c2ccccc12)C(=O)N[C@@H](CC(C)C)C(=O)N[C@H](C(=O)N[C@@H](CCCNC(=N)N)C(=O)NCC(=O)NCC(=O)N1CCC[C@H]1C(=O)N[C@@H](CO)C(=O)N[C@@H](CO)C(=O)NCC(=O)N[C@@H](C)C(=O)N1CCC[C@H]1C(=O)N1CCC[C@H]1C(=O)N1CCC[C@H]1C(=O)N[C@@H](CO)C(=O)N[C@@H](CCCCNC(=O)CCCCCCCCCCCCCCCCC(=O)O)C(=O)O)C(C)C` [compound 1418, Z DVSSYLEEQAVREFIAWLVRGGPSSGAPPPSO-acid] ([pGlu]DVSSYLEEQAVREFIAWLVRGGPSSGAPPPSK(C18 diacid)-OH) as the compound, how does the IC50 [3] read?
Answer: 67 nM

Question: Which solubility [1, 7] does the source give for `CCCCCCCCCCCCCCCC(=O)NCCCC[C@H](NC(=O)[C@H](CO)NC(=O)[C@@H]1CCCN1C(=O)[C@@H]1CCCN1C(=O)[C@@H]1CCCN1C(=O)[C@H](C)NC(=O)CNC(=O)[C@H](CO)NC(=O)[C@H](CO)NC(=O)[C@@H]1CCCN1C(=O)CNC(=O)CNC(=O)[C@H](CCCCN)NC(=O)C(C)(C)NC(=O)[C@H](CC(C)C)NC(=O)[C@H](Cc1c[nH]c2ccccc12)NC(=O)[C@H](C)NC(=O)[C@@H](NC(=O)[C@H](Cc1ccccc1)NC(=O)[C@H](CCC(=O)O)NC(=O)[C@H](CCCNC(=N)N)NC(=O)[C@@H](NC(=O)[C@H](C)NC(=O)[C@H](CCC(N)=O)NC(=O)[C@H](CCC(=O)O)NC(=O)[C@H](CCC(=O)O)NC(=O)[C@H](CC(C)C)NC(=O)[C@H](Cc1ccc(O)cc1)NC(=O)[C@H](CO)NC(=O)[C@H](CO)NC(=O)[C@@H](NC(=O)[C@@H](N)CC(=O)O)C(C)C)C(C)C)[C@@H](C)CC)C(N)=O` [compound 81] (H-DVSSYLEEQAVREFIAWL[Aib]KGGPSSGAPPPSK(Palmitoyl)-NH2) here?
Answer: 19000 µg/mL (≈ 5240 µM)

Question: What about the solubility [1, 8] of the same compound?
Answer: 1600 µg/mL (≈ 441 µM)

Question: What about the IC50 [2, 9] of the same compound?
Answer: 23 nM

Question: With `CCCCCCCCCCCCCCCC(=O)NCCCC[C@H](NC(=O)[C@H](CO)NC(=O)[C@@H]1CCCN1C(=O)[C@@H]1CCCN1C(=O)[C@@H]1CCCN1C(=O)[C@H](C)NC(=O)CNC(=O)[C@H](CO)NC(=O)[C@H](CO)NC(=O)[C@@H]1CCCN1C(=O)CNC(=O)CNC(=O)[C@H](CCCCN)NC(=O)[C@@H](NC(=O)[C@H](CC(C)C)NC(=O)[C@H](Cc1c[nH]c2ccccc12)NC(=O)[C@H](C)NC(=O)[C@@H](NC(=O)[C@H](Cc1ccccc1)NC(=O)[C@H](CCC(=O)O)NC(=O)[C@H](CCCNC(=N)N)NC(=O)[C@@H](NC(=O)[C@H](C)NC(=O)[C@H](CCC(N)=O)NC(=O)[C@H](CCC(=O)O)NC(=O)[C@H](CCC(=O)O)NC(=O)[C@H](CC(C)C)NC(=O)[C@H](Cc1ccc(O)cc1)NC(=O)[C@H](CO)NC(=O)[C@H](CO)NC(=O)[C@@H](NC(=O)[C@@H](N)CC(=O)O)C(C)C)C(C)C)[C@@H](C)CC)C(C)C)C(N)=O` [compound 47] (H-DVSSYLEEQAVREFIAWLVKGGPSSGAPPPSK(Palmitoyl)-NH2; N-terminus assumed) as the compound, how does the solubility [1, 7] read?
Answer: 6100 µg/mL (≈ 1680 µM)

Question: And the solubility ([4]; 80 mM ammonium bicarbonate buffer, pH 7.7, Solubility 80 mM AmeBicarb pH7.7, Table 3, 80 mM AmeBicarb pH7.7)?
Answer: 6100 µg/mL (≈ 1680 µM)

Question: For `CCCCCCCCCCCCCCCC(=O)N[C@@H](CCC(=O)NCCOCCOCC(=O)NCCCC[C@H](NC(=O)[C@H](CO)NC(=O)[C@@H]1CCCN1C(=O)[C@@H]1CCCN1C(=O)[C@@H]1CCCN1C(=O)[C@H](C)NC(=O)CNC(=O)[C@H](CO)NC(=O)[C@H](CO)NC(=O)[C@@H]1CCCN1C(=O)CNC(=O)CNC(=O)C(C)(C)NC(=O)[C@H](CCCNC(=N)N)NC(=O)[C@H](CC(C)C)NC(=O)[C@H](Cc1c[nH]c2ccccc12)NC(=O)[C@H](CCC(=O)O)NC(=O)[C@@H](NC(=O)[C@H](Cc1ccccc1)NC(=O)[C@H](CCC(=O)O)NC(=O)[C@H](CCCNC(=N)N)NC(=O)[C@@H](NC(=O)[C@H](C)NC(=O)[C@H](CCC(N)=O)NC(=O)[C@H](CCC(=O)O)NC(=O)[C@H](CCC(=O)O)NC(=O)[C@H](CC(C)C)NC(=O)[C@H](Cc1ccc(O)cc1)NC(=O)[C@H](CO)NC(=O)[C@H](CO)NC(=O)[C@@H](NC(=O)[C@@H](N)CC(=O)O)C(C)C)C(C)C)[C@@H](C)CC)C(=O)O)C(=O)O` [compound 80] (H-DVSSYLEEQAVREFIEWLR[Aib]GGPSSGAPPPSK([AEEA-γGlu-Palmitoyl])-OH; N-terminus assumed), which solubility [1, 5] is on record?
Answer: > 20000 µg/mL

Question: What about the IC50 [2, 6] of the same compound?
Answer: 106 nM

Question: For `CCCCCCCCCCCCCCCC(=O)NCCCC[C@H](NC(=O)[C@H](CO)NC(=O)[C@@H]1CCCN1C(=O)[C@@H]1CCCN1C(=O)[C@@H]1CCCN1C(=O)[C@H](C)NC(=O)CNC(=O)[C@H](CO)NC(=O)[C@H](CO)NC(=O)[C@@H]1CCCN1C(=O)CNC(=O)CNC(=O)[C@H](CCCCN)NC(=O)[C@@H](NC(=O)C(C)(C)NC(=O)[C@H](Cc1c[nH]c2ccccc12)NC(=O)[C@H](C)NC(=O)[C@@H](NC(=O)[C@H](Cc1ccccc1)NC(=O)[C@H](CCC(=O)O)NC(=O)[C@H](CCCNC(=N)N)NC(=O)[C@@H](NC(=O)[C@H](C)NC(=O)[C@H](CCC(N)=O)NC(=O)[C@H](CCC(=O)O)NC(=O)[C@H](CCC(=O)O)NC(=O)[C@H](CC(C)C)NC(=O)[C@H](Cc1ccc(O)cc1)NC(=O)[C@H](CO)NC(=O)[C@H](CO)NC(=O)[C@@H](NC(=O)[C@@H](N)CC(=O)O)C(C)C)C(C)C)[C@@H](C)CC)C(C)C)C(N)=O` [compound 44] (H-DVSSYLEEQAVREFIAW[Aib]VKGGPSSGAPPPSK(Palmitoyl)-NH2), which solubility [1, 7] is on record?
Answer: 19000 µg/mL (≈ 5260 µM)

Question: And the IC50 [2, 9]?
Answer: 8 nM

Question: And the solubility ([4]; PBS, pH 7.7, Solubility [mg/mL] PBS pH7.7, Table 4, PBS pH7.7)?
Answer: 100 µg/mL (≈ 27.7 µM)

Question: Which solubility [1, 7] does the source give for `CCCCCCCCCCCCCCCC(=O)N[C@@H](CCC(=O)NCCOCCOCC(=O)NCCOCCOCC(=O)NCCCC[C@H](NC(=O)[C@H](CO)NC(=O)[C@@H]1CCCN1C(=O)[C@@H]1CCCN1C(=O)[C@@H]1CCCN1C(=O)[C@H](C)NC(=O)CNC(=O)[C@H](CO)NC(=O)[C@H](CO)NC(=O)[C@@H]1CCCN1C(=O)CNC(=O)CNC(=O)[C@H](CCCCN)NC(=O)[C@@H](NC(=O)[C@H](CC(C)C)NC(=O)[C@H](Cc1c[nH]c2ccccc12)NC(=O)[C@H](C)NC(=O)[C@@H](NC(=O)[C@H](Cc1ccccc1)NC(=O)[C@H](CCC(=O)O)NC(=O)[C@H](CCCNC(=N)N)NC(=O)[C@@H](NC(=O)[C@H](C)NC(=O)[C@H](CCC(N)=O)NC(=O)[C@H](CCC(=O)O)NC(=O)[C@H](CCC(=O)O)NC(=O)[C@H](CC(C)C)NC(=O)[C@H](Cc1ccc(O)cc1)NC(=O)[C@H](CO)NC(=O)[C@H](CO)NC(=O)[C@@H](NC(=O)[C@@H](N)CC(=O)O)C(C)C)C(C)C)[C@@H](C)CC)C(C)C)C(N)=O)C(=O)O` [compound 48] (H-DVSSYLEEQAVREFIAWLVKGGPSSGAPPPSK([AEEA-AEEA-γGlu-Palmitoyl])-NH2; N-terminus assumed) here?
Answer: 9000 µg/mL (≈ 2220 µM)

Question: What about the IC50 ([2]; Table 2, C16 linker variants of 9-40amide Jant4 K40[X], read-out: Biactivity IC50) of the same compound?
Answer: 9 nM

Question: For `CCCCCCCCCCCCCCCC(=O)NCCCC[C@H](NC(=O)[C@H](CO)NC(=O)[C@@H]1CCCN1C(=O)[C@@H]1CCCN1C(=O)[C@@H]1CCCN1C(=O)[C@H](C)NC(=O)CNC(=O)[C@H](CO)NC(=O)[C@H](CO)NC(=O)[C@@H]1CCCN1C(=O)CNC(=O)CNC(=O)C(C)(C)NC(=O)[C@H](CCCCN)NC(=O)[C@H](CC(C)C)NC(=O)[C@H](Cc1c[nH]c2ccccc12)NC(=O)[C@H](C)NC(=O)[C@@H](NC(=O)[C@H](Cc1ccccc1)NC(=O)[C@H](CCC(=O)O)NC(=O)[C@H](CCCNC(=N)N)NC(=O)[C@@H](NC(=O)[C@H](C)NC(=O)[C@H](CCC(N)=O)NC(=O)[C@H](CCC(=O)O)NC(=O)[C@H](CCC(=O)O)NC(=O)[C@H](CC(C)C)NC(=O)[C@H](Cc1ccc(O)cc1)NC(=O)[C@H](CO)NC(=O)[C@H](CO)NC(=O)[C@@H](NC(=O)[C@@H](N)CC(=O)O)C(C)C)C(C)C)[C@@H](C)CC)C(N)=O` [SEQ ID NO: 43], which solubility [1, 7] is on record?
Answer: 18900 µg/mL (≈ 5210 µM)

Question: And the solubility [1, 8]?
Answer: 200 µg/mL (≈ 55.2 µM)

Question: And the IC50 [2, 9]?
Answer: 13 nM
